Laboratory results from ChEMBL document CHEMBL6182948 (J Med Chem, 2025).

Columns and labels:
CYP2D6 = CYP2D6 (Homo sapiens, UniProt P10635); experiment: Inhibition of CYP2D6 in human liver microsome at 3 uM pre-incubated with compound for 5 mins followed NADPH addition and measured after 10 mins by LC-MS/MS analysis relative to control; conditions: liver microsomes
Cytochrome P450 1B1 = target: T1, Cytochrome P450 1B1 (Homo sapiens, UniProt Q16678); experiment: Inhibition of human recombinant CYP1B1 using 7-ethoxyresorufin as substrate incubated under dark condition for 30 mins in presence of NADPH by EROD fluorescence assay; format: ADME
T1 sequence (Q16678 whole entry): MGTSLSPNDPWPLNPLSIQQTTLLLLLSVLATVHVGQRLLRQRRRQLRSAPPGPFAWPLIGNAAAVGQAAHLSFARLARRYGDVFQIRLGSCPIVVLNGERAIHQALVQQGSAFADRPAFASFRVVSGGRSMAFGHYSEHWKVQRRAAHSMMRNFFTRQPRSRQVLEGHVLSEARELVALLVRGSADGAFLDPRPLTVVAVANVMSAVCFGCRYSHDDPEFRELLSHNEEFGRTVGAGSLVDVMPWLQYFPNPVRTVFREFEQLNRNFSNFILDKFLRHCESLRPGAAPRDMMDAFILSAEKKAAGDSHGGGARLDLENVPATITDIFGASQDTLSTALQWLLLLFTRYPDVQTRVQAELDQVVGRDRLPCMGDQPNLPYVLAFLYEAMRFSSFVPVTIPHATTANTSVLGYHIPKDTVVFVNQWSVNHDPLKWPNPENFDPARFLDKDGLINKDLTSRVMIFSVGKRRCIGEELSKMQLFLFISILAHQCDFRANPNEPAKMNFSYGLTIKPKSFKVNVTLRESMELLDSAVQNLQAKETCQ

Cytochrome P450 1A2 = target: T2, Cytochrome P450 1A2 (Homo sapiens, UniProt P05177); experiment: Inhibition of human recombinant CYP1A2 using 7-ethoxyresorufin as substrate incubated under dark condition for 45 mins in presence of NADPH by EROD fluorescence assay; format: ADME
T2 sequence (P05177 whole entry): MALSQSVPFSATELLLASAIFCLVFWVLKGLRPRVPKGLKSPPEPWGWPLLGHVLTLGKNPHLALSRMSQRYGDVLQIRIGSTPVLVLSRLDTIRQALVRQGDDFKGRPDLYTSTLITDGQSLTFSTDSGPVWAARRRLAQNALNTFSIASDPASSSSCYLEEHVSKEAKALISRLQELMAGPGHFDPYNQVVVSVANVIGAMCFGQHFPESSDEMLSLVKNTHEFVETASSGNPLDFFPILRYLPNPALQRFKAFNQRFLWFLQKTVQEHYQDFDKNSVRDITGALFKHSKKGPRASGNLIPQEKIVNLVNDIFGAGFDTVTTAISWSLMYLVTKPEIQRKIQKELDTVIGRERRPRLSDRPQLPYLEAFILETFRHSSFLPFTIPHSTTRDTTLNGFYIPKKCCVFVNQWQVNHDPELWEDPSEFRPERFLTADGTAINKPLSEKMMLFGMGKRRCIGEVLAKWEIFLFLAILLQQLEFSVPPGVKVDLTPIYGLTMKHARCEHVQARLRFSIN

Homo sapiens [1] = species: Homo sapiens; experiment: Selectivity index, ratio of IC50 for human recombinant CYP1A2 to IC50 for human recombinant CYP1B1 using 7-ethoxyresorufin as substrate
Homo sapiens [2] = species: Homo sapiens; experiment: Selectivity index, ratio of IC50 for human recombinant CYP1A1 to IC50 for human recombinant CYP1B1 using 7-ethoxyresorufin as substrate
Cytochrome P450 1A1 = target: T3, Cytochrome P450 1A1 (Homo sapiens, UniProt P04798); experiment: Inhibition of human recombinant CYP1A1 using 7-ethoxyresorufin as substrate incubated under dark condition for 15 mins in presence of NADPH by EROD fluorescence assay; format: ADME
T3 sequence (P04798 whole entry): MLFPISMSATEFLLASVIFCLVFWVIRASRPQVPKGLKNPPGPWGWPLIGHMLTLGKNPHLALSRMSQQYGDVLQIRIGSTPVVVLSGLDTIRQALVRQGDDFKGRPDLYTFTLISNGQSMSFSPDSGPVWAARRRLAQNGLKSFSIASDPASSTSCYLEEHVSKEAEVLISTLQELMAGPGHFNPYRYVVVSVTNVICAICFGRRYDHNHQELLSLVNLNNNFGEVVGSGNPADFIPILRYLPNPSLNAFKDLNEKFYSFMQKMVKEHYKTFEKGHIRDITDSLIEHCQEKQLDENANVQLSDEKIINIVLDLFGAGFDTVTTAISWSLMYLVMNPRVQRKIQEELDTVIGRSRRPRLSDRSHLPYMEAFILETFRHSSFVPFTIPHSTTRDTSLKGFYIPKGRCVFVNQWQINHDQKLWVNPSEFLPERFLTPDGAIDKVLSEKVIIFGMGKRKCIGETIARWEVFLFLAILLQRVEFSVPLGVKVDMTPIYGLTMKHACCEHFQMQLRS

CYP1B1 = target: T4, CYP1B1 (Homo sapiens, UniProt Q16678); experiment: Inhibition of human recombinant CYP1B1 using 7-ethoxyresorufin as substrate at 100 uM incubated under dark condition for 30 mins in presence of NADPH by EROD fluorescence assay relative to control; format: ADME; conditions: recombinant CYP1B1, probe 7-ethoxyresorufin
T4 sequence (Q16678 whole entry): T1 sequence (Q16678 whole entry)

CYP2C19 = CYP2C19 (Homo sapiens, UniProt P33261); experiment: Inhibition of CYP2C19 in human liver microsome at 3 uM pre-incubated with compound for 5 mins followed NADPH addition and measured after 30 mins by LC-MS/MS analysis relative to control; format: ADME; conditions: liver microsomes, time 35 min
CYP2C8 = target: T5, CYP2C8 (Homo sapiens, UniProt P10632); experiment: Inhibition of CYP2C8 in human liver microsome at 10 uM pre-incubated with compound for 5 mins followed NADPH addition and measured after 5 mins by LC-MS/MS analysis relative to control; format: ADME; conditions: liver microsomes, time 10 min
T5 sequence (P10632 whole entry): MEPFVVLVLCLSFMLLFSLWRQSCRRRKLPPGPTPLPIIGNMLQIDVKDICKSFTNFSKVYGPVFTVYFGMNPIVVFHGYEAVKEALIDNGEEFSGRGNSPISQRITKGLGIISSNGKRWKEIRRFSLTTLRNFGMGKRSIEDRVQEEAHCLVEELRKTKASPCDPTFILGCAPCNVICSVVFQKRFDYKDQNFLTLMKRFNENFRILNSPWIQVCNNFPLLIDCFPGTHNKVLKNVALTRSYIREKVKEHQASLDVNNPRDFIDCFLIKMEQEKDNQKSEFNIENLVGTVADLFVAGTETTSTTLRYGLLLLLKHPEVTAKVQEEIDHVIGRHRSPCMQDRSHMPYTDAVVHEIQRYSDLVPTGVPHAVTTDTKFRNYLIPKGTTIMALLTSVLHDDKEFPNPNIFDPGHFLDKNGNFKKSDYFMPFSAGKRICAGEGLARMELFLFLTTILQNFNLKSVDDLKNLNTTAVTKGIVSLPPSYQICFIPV

[3] = Metabolic stability in liver microsomes (unknown origin) assessed as half life at 0.5 mg/ml measured up to 60 mins by LC-MS/MS analysis; format: ADME, Microsome; conditions: human
[4] = Metabolic stability in liver microsome (unknown origin) assessed as intrinsic clearance at 0.5 mg/mL measured up to 60 mins by LC-MS/MS analysis; format: ADME; conditions: human, liver microsomes, read-out: CLH
CYP2C9 = CYP2C9 (Homo sapiens, UniProt P11712); experiment: Inhibition of CYP2C9 in human liver microsome at 3 uM pre-incubated with compound for 5 mins followed NADPH addition and measured after 10 mins by LC-MS/MS analysis relative to control; conditions: liver microsomes
[5] = Stability in human plasma assessed as compound remaining at 100 uM measured after 30 mins by LC-MS/MS analysis; format: ADME, cell-free; conditions: read-out: Stability
[6] = Stability in human plasma assessed as compound remaining at 100 uM measured after 60 mins by LC-MS/MS analysis; format: ADME, cell-free; conditions: read-out: Stability
[7] = Stability in human plasma assessed as compound remaining at 100 uM measured after 5 mins by LC-MS/MS analysis; format: ADME, cell-free; conditions: read-out: Stability
[8] = Stability in human plasma assessed as compound remaining at 100 uM measured after 15 mins by LC-MS/MS analysis; format: ADME, cell-free; conditions: read-out: Stability
[9] = Stability in human plasma assessed as compound remaining at 100 uM measured after 120 mins by LC-MS/MS analysis; format: ADME, cell-free; conditions: read-out: Stability

Chain of CYP2C9 (P11712 whole entry): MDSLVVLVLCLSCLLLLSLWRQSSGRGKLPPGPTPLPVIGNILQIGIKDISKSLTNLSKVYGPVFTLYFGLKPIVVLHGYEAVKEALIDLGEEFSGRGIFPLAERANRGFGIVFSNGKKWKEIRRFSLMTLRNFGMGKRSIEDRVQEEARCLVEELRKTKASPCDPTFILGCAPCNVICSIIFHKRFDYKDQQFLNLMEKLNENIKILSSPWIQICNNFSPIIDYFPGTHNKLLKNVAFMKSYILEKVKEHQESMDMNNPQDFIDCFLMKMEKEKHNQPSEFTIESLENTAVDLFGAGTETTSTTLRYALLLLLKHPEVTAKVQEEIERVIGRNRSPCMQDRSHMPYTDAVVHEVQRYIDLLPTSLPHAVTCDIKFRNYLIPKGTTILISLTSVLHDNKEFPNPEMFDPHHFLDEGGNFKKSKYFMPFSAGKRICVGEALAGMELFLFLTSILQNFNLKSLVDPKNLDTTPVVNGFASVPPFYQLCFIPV
Chain of CYP2C19 (P33261 whole entry): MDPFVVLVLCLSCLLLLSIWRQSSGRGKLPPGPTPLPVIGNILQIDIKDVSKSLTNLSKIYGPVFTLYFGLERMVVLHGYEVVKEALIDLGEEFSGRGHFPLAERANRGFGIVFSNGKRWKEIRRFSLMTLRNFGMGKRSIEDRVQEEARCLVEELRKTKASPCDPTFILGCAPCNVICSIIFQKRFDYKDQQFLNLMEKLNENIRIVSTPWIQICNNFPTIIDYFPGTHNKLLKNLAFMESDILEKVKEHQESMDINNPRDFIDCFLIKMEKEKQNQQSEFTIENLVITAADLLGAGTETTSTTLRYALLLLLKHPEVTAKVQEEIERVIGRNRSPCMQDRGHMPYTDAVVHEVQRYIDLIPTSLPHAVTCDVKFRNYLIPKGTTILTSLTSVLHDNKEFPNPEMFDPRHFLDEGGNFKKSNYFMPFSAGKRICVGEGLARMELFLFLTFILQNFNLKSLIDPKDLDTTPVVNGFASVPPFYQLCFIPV
Chain of CYP2D6 (P10635 whole entry): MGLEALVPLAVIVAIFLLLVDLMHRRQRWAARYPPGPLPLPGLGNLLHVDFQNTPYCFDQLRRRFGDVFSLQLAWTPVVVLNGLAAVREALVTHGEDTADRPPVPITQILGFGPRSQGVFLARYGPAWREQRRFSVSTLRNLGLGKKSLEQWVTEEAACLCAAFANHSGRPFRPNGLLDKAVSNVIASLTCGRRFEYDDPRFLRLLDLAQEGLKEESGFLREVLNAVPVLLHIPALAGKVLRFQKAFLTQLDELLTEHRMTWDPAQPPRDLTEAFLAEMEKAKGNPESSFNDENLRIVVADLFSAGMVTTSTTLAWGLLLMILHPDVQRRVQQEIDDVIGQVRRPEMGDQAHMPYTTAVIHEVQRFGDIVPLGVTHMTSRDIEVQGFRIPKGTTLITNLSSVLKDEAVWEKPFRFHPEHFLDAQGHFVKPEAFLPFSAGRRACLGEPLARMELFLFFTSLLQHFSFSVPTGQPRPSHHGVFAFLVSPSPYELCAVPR

IC50 (Cytochrome P450 1B1) | IC50 (Cytochrome P450 1A2) | Ratio IC50 (Homo sapiens [1]) | Ratio IC50 (Homo sapiens [2]) | IC50 (Cytochrome P450 1A1) | inhibition at 0.5 h, 100 µM (CYP1B1) | SMILES | further results
0.4 nM | 151 nM | 377 | 410 | 164 nM | 100% | O=C(Nc1ccc(I)cc1)c1nc(-c2ccccc2)cs1 | –
4.65 nM | 724 nM | 156 | 134 | 621 nM | 87.4% | COc1cc(NC(=O)c2nc(-c3ccccc3)cs2)cc(OC)c1 | –
7.68 nM | 563 nM | 73.4 | 113 | 870 nM | 99.3% | N#Cc1ccc(NC(=O)c2nc(-c3ccccc3)cs2)cc1 | –
2.39 nM | 1070 nM | 447 | 721 | 1720 nM | 99.9% | O=C(Nc1ccc(C(F)F)cc1)c1nc(-c2ccccc2)cs1 | –
1.18 nM | 386 nM | 327 | 180 | 213 nM | 102% | O=C(Nc1ccc(Cl)cc1)c1nc(-c2ccccc2)cs1 | –

The remaining lines, values behind:

SMILES | IC50 (Cytochrome P450 1B1) | IC50 (Cytochrome P450 1A2) | Ratio IC50 (Homo sapiens [1]) | Ratio IC50 (Homo sapiens [2]) | IC50 (Cytochrome P450 1A1) | inhibition at 0.5 h, 100 µM (CYP1B1) | further results
C=C[C@H]1C[N@@]2CC[C@H]1C[C@@H]2[C@@H](O)c1ccnc2ccc(OC)cc12 [QUINIDINE] | – | – | – | – | – | – | inhibition at 10 min, 3 µM (CYP2D6): 89.3%
CCC1(c2ccccc2)NC(=O)N(Cc2ccccc2)C1=O (stereo not given) | – | – | – | – | – | – | inhibition at 0.5 h, 3 µM (CYP2C19): 89.8%
O=C(Nc1cc(Cl)cc(Cl)c1)c1nc(-c2ccccc2)cs1 | 3.36 nM | 712 nM | 212 | 66.2 | 223 nM | 102% | –
O=C(Nc1ccc(C(F)(F)F)cc1)c1nc(-c2ccccc2)cs1 | 0.47 nM | 450 nM | 952 | 951 | 450 nM | 99.5% | –
O=c1c(O)c(-c2ccc(O)c(O)c2)oc2cc(O)cc(O)c12 [QUERCETIN] | – | – | – | – | – | – | inhibition at 5 min, 10 µM (CYP2C8): 77.2%
O=C(O)Cc1ccccc1Nc1c(Cl)cccc1Cl [DICLOFENAC] | – | – | – | – | – | – | half-life [3]: 5.5 min; CLint scaled [4]: 226 mL/min/kg
COc1ccc(OC)c(NC(=O)c2nc(-c3ccccc3)cs2)c1 | 22 nM | 611 nM | 27.8 | 18.4 | 404 nM | 91.2% | –
COc1cc(Cl)cc(NC(=O)c2nc(-c3ccccc3)cs2)c1 | 17.3 nM | 619 nM | 35.9 | 13.3 | 230 nM | 96.5% | –
Cc1ccc(NC(=O)c2nc(-c3ccccc3)cs2)cc1 | 37 nM | 1000 nM | 27.1 | 26.4 | 977 nM | 94.2% | –
COc1ccc(NC(=O)c2nc(-c3ccccc3)cs2)c(OC)c1 | 25.2 nM | 438 nM | – | 31.1 | 785 nM | 89.3% | –
O=C(Nc1ccc(OC(F)F)cc1)c1nc(-c2ccccc2)cs1 | 0.26 nM | 679 nM | 2610 | 808 | 210 nM | 100% | –
Nc1ccc(S(=O)(=O)Nc2ccnn2-c2ccccc2)cc1 [SULFAPHENAZOLE] | – | – | – | – | – | – | inhibition at 10 min, 3 µM (CYP2C9): 79%
O=C(Nc1ccc(-n2ccnc2)cc1)c1nc(-c2ccccc2)cs1 | 1.49 nM | 2.4 nM | 1.6 | 7.2 | 10.8 nM | 102% | –
O=C(Nc1cccc(F)c1)c1nc(-c2ccccc2)cs1 | 23.9 nM | 465 nM | 19.4 | 9 | 215 nM | 82.2% | –
O=C(Nc1ccc(F)cc1)c1nc(-c2ccccc2)cs1 | 24 nM | 221 nM | 9.2 | 11.7 | 280 nM | 86.7% | –
O=C(Nc1ccc(OC(F)(F)F)cc1)c1nc(-c2ccccc2)cs1 | 7.45 nM | 472 nM | 63.4 | 28.6 | 213 nM | 92.2% | –
COc1cc(NC(=O)c2nc(-c3ccccc3)cs2)cc(OC)c1OC | – | – | – | – | – | 62.8% | –
COc1ccc(NC(=O)c2nc(-c3ccccc3)cs2)cc1 | 11.2 nM | 899 nM | 80.2 | 42 | 470 nM | 95% | –
O=C(Nc1cc(Cl)ccc1Cl)c1nc(-c2ccccc2)cs1 | 10.1 nM | 80.9 nM | 8 | 20.5 | 208 nM | 96.2% | –
CC(C)[N+](C)(CCOC(=O)C1c2ccccc2Oc2ccccc21)C(C)C [PROPANTHELINE BROMIDE] | – | – | – | – | – | – | remaining at 0.5 h, 100 µM [5]: 41.3%; remaining at 1 h, 100 µM [6]: 11.6%; remaining at 5 min, 100 µM [7]: 90.7%; remaining at 0.25 h, 100 µM [8]: 66.5%; remaining at 2 h, 100 µM [9]: 1.7%
O=C(Nc1ccc(Cl)cc1Cl)c1nc(-c2ccccc2)cs1 | 3.57 nM | 488 nM | 137 | 70.3 | 251 nM | 102% | –
